“And” between values parts separate entries of the source, which are not always exact repeats. Equal values may be shown once.
Key:
Assay in all cases: biochemical
[1] = molecular target: BUB1 (Homo sapiens, UniProt O43683)
[2] = molecular target: CDK5 (Homo sapiens, UniProt Q00535)
[3] = molecular target: CSK (Homo sapiens, UniProt P41240)
[4] = molecular target: EIF2AK4 (Homo sapiens, UniProt Q9P2K8)
[5] = molecular target: T1, MAP4K2 (Homo sapiens, UniProt Q12851)
T1 sequence (Q12851 1-820): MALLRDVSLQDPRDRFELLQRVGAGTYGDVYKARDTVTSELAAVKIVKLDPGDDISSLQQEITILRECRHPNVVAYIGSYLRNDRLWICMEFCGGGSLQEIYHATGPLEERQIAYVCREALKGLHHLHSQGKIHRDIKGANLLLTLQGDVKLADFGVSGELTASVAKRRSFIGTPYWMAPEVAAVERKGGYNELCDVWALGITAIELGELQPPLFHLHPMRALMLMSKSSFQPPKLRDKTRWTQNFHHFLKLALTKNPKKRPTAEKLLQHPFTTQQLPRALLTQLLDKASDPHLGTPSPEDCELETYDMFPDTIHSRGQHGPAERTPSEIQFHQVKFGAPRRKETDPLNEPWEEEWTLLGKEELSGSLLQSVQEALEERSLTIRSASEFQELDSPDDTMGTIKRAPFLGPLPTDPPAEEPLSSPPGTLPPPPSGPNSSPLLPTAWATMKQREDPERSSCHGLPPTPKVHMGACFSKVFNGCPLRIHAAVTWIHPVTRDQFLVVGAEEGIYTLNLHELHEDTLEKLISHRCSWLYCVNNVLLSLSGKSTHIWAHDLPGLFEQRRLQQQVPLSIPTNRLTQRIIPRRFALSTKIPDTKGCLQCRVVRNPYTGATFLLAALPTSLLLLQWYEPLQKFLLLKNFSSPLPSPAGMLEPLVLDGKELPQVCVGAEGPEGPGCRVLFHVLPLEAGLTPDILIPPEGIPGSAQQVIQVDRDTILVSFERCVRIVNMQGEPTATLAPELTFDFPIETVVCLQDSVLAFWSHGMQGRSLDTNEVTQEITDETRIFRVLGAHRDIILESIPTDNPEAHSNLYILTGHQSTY

[6] = molecular target: T2, NEK1 (Homo sapiens, UniProt Q96PY6)
T2 sequence (Q96PY6 1-1258): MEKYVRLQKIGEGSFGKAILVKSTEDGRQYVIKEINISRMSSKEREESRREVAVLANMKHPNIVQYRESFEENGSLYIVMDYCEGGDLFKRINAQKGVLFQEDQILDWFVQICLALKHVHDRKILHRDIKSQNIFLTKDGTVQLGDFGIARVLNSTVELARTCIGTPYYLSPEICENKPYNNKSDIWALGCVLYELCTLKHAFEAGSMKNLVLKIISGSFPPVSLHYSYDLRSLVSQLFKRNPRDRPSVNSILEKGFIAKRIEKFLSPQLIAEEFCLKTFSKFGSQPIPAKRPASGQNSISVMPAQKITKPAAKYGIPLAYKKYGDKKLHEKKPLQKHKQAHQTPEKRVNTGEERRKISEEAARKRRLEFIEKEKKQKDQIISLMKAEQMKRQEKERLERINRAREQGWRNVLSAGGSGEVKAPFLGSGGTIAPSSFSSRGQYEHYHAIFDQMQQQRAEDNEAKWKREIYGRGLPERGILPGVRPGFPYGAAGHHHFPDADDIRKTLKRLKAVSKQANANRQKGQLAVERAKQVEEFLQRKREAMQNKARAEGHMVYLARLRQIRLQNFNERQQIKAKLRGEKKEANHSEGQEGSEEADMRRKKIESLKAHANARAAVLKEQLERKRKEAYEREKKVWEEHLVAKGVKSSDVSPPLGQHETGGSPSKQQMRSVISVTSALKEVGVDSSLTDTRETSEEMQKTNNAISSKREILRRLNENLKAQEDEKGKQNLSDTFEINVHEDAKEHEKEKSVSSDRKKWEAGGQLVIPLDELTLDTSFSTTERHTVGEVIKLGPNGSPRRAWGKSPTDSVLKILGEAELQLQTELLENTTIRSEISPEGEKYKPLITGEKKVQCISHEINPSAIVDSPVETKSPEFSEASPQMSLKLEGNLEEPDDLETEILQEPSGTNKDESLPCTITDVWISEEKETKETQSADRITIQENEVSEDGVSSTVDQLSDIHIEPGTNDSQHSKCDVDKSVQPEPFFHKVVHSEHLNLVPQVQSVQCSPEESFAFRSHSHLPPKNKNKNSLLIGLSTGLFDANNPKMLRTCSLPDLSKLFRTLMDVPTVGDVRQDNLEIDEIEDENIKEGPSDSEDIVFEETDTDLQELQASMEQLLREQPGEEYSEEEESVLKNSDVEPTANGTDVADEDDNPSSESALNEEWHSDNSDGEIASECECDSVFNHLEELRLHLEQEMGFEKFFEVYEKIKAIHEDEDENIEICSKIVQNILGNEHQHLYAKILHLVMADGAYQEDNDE

[7] = molecular target: RIPK2 (Homo sapiens, UniProt O43353)
[8] = molecular target: SLK (Homo sapiens, UniProt Q9H2G2)
[9] = molecular target: STK38 (Homo sapiens, UniProt Q15208)
[10] = molecular target: mTOR (Homo sapiens, UniProt P42345)

Sequence of CSK (P41240 whole entry): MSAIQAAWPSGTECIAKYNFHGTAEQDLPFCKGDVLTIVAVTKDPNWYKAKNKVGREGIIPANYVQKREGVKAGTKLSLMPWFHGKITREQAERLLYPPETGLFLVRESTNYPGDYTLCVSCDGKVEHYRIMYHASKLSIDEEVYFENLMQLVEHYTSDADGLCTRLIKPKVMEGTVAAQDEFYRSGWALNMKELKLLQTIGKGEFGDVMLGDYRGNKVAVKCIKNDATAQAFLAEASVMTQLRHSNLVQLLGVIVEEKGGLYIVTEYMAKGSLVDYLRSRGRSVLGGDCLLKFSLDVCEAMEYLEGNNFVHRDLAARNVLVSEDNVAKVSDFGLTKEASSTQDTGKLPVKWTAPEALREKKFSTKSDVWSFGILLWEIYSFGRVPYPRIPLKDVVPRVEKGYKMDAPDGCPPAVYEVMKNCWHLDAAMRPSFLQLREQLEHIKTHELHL
Sequence of SLK (Q9H2G2 whole entry): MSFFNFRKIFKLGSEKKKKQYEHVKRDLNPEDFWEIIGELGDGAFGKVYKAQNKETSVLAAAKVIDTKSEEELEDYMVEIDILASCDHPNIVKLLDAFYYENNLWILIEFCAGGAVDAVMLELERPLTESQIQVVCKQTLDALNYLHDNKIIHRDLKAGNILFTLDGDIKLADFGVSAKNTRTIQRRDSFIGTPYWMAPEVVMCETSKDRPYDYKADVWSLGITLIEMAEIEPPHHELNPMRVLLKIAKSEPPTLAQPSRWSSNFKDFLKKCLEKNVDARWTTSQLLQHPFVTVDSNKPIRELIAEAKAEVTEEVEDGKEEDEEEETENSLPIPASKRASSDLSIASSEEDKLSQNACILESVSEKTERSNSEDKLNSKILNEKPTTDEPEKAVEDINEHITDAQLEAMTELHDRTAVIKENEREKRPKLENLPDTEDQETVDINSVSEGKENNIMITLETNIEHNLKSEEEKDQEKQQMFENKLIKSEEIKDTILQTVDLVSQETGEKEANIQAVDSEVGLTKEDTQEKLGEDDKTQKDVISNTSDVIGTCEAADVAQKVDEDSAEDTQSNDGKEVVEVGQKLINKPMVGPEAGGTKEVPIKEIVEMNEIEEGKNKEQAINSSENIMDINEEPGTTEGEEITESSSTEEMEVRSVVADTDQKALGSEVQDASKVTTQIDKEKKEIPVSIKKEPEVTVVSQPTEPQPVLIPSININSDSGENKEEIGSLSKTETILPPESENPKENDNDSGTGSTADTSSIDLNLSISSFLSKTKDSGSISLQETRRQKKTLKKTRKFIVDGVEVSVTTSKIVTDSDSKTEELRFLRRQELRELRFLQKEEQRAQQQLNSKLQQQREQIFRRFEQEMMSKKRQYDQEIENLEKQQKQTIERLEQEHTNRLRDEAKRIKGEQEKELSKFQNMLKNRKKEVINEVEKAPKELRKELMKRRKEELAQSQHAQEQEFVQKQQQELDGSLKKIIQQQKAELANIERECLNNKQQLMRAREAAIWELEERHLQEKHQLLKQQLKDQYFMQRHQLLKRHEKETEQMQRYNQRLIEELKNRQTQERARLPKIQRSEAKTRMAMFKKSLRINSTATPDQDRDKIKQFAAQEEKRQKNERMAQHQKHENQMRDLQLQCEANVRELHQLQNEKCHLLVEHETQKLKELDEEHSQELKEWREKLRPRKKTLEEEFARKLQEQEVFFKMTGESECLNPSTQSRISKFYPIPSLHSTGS
Sequence of RIPK2 (O43353 whole entry): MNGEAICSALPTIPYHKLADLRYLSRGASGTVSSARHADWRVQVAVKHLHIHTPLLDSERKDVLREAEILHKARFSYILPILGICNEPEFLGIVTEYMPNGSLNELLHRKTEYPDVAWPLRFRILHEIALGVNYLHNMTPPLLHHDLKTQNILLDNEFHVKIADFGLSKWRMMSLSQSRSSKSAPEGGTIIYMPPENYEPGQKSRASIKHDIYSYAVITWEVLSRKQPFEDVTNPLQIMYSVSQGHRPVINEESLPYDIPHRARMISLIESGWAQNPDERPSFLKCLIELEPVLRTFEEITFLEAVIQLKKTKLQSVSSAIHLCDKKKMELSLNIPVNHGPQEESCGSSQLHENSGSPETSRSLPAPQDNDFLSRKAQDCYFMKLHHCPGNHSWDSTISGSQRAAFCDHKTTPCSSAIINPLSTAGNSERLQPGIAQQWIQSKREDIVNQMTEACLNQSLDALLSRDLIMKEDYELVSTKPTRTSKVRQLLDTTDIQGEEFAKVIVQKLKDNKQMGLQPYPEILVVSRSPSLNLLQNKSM
Sequence of CDK5 (Q00535 whole entry): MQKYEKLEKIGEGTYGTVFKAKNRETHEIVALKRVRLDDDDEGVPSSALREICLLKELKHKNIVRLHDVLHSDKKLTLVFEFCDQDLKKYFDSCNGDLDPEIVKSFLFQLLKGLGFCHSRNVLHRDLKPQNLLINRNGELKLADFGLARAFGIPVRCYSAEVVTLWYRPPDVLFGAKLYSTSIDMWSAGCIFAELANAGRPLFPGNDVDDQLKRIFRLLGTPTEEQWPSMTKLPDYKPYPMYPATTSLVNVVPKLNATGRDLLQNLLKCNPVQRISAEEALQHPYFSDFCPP
Sequence of STK38 (Q15208 whole entry): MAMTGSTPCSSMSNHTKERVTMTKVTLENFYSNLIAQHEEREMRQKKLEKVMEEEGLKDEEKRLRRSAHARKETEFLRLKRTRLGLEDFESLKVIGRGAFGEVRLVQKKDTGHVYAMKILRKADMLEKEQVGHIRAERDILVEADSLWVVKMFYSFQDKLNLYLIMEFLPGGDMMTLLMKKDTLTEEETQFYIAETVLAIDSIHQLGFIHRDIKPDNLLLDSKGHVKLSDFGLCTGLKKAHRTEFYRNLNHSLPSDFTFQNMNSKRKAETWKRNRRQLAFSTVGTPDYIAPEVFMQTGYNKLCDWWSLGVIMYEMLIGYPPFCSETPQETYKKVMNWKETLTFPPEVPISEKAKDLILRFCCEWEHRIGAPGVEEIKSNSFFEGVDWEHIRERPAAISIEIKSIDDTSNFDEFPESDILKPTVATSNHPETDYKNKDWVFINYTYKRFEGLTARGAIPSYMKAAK
Sequence of EIF2AK4 (Q9P2K8 whole entry): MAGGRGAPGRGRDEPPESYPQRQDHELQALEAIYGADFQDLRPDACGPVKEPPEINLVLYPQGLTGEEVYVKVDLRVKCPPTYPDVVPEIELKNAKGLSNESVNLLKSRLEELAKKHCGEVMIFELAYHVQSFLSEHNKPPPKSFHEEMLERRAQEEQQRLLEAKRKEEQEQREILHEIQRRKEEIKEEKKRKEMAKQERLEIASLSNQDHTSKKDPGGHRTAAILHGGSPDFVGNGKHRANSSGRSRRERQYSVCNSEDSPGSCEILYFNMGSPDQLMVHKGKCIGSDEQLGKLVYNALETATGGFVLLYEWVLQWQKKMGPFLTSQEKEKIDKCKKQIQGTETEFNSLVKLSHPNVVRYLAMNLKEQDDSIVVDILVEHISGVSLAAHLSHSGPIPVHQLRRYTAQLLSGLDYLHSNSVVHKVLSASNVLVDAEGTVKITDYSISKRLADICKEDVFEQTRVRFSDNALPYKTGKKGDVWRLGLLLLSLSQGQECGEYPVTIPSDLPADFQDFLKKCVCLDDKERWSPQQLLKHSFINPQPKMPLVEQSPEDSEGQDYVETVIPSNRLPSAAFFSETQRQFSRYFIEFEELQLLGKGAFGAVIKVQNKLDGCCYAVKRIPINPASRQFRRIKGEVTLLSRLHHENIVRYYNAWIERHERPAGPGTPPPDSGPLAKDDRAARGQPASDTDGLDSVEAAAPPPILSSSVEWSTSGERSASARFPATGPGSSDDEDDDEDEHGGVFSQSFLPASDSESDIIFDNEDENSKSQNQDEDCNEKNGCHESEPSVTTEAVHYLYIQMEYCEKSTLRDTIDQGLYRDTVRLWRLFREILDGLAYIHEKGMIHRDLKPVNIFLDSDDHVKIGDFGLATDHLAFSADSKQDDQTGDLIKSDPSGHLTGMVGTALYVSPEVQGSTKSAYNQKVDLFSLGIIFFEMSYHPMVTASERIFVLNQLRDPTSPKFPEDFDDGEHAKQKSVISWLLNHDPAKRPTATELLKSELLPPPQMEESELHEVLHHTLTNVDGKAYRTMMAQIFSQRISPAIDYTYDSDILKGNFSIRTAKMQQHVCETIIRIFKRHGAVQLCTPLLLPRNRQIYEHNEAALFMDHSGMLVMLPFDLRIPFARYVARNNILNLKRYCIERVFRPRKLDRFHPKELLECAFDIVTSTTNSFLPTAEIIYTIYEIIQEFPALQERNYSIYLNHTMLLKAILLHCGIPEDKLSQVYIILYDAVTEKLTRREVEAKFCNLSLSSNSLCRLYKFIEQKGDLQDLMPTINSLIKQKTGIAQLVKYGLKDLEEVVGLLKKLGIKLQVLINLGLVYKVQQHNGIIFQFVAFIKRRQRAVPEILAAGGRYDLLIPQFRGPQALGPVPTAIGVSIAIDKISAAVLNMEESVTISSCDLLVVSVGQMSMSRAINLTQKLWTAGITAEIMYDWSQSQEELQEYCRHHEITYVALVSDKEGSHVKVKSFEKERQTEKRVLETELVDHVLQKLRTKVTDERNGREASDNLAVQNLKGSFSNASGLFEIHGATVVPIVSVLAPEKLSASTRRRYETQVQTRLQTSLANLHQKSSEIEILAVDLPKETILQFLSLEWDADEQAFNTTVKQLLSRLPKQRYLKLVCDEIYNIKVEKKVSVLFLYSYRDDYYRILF

CN(C)CC(O)COc1ccc(Nc2ncc([N+](=O)[O-])c(Nc3ccccc3O)n2)cc1.O=C(O)C(F)(F)F (stereo not drawn) [TCMDC-141399]
IC50 [1]: > 20000 nM
IC50 [2]: > 20000 nM
IC50 [3]: > 20000 nM
IC50 [4]: 260 nM and 350 nM
IC50 [5]: > 20000 nM
IC50 [6]: 6400 nM
IC50 [7]: > 20000 nM
IC50 [8]: 890 nM and 1000 nM
IC50 [9]: > 20000 nM
IC50 [10]: > 20000 nM

Cl.NCC1(c2nc(-c3ccc(Cl)c(O)c3)c(-c3ccncc3)[nH]2)CCCCC1 [TCMDC-141154]
IC50 [1]: 240 nM and 170 nM
IC50 [2]: > 20000 nM
IC50 [3]: 4400 nM
IC50 [4]: > 20000 nM
IC50 [5]: > 20000 nM
IC50 [6]: > 20000 nM
IC50 [7]: 43 nM and 52 nM
IC50 [8]: ≤ 32 nM
IC50 [9]: > 20000 nM
IC50 [10]: > 20000 nM

CN1CCN(c2ccc(Nc3ncc(C#N)c(Nc4ccccc4C(N)=O)n3)cc2)CC1.Cl [TCMDC-134116]
IC50 [1]: 370 nM and 320 nM
IC50 [2]: 67 nM and 110 nM
IC50 [3]: 4100 nM
IC50 [4]: 240 nM and 210 nM
IC50 [5]: 1000 nM
IC50 [6]: 570 nM and 470 nM
IC50 [7]: 810 nM
IC50 [8]: 48 nM and 57 nM
IC50 [9]: 350 nM and 290 nM
IC50 [10]: > 20000 nM

Source: PMC4774911, “Biochemical Screening of Five Protein Kinases from Plasmodium falciparum against 14,000 Cell-Active Compounds” (PLoS ONE, 2016)
